Values of other authors in PMC10928227, “Assessing biologic/toxicologic effects of extractables from plastic contact materials for advanced therapy manufacturing using cell painting assay and cytotoxicity screening” (Scientific Reports, 2024).
Like-named read-outs stand apart in the source and are kept apart here.

What was measured:
[1] = cited from earlier work; for Chromosome aberration, Micronucleus Assay / DNA damage and repair, COMET or Alkaline Elution / DNA damage and repair, Single Cell Gel Electrophoresis (comet) Assay: in Vivo; for DNA damage and repair, Single Cell Gel Electrophoresis (comet) Assay: ref Yu F. Sasaki et. al., 2000, Critical Reviews in Toxicology,30(6),Pp.629-799
[2] = cited from earlier work; for Gene mutation, Mammalian Cell Gene Mutation Assay: T-lymphoma Cell Lines
[3] = Database Genotoxicity & Carcinogenicity ECVAM, ref EURL ECVAM genotoxicity and carcinogencity database, Madia F et al, 2020
[4] = Salmonella typhimurium, No Strain Information, in Vitro, Database: Genotoxicity OASIS, ref Mutation Research 584 (2005) 1-256, Kirkland et al.
[5] = Salmonella typhimurium, Strain TA 98, in Vitro, Database: Bacterial mutagenicity ISSSTY, ref CCRIS database,Toxnet databases (Romualdo Benigni)
[6] = Salmonella typhimurium, Strain TA 98, in Vitro, Database: Genotoxicity OASIS, ref P&G
[7] = Salmonella typhimurium, Strain TA 100, in Vitro, Database: Bacterial mutagenicity ISSSTY, ref CCRIS database,Toxnet databases (Romualdo Benigni)
[8] = Salmonella typhimurium, Strain TA 100, in Vitro, Database: Genotoxicity OASIS, ref P&G
[9] = Salmonella typhimurium, Strain TA 102, in Vitro, Database: Bacterial mutagenicity ISSSTY, ref CCRIS database,Toxnet databases (Romualdo Benigni)
[10] = Salmonella typhimurium, Strain TA 1535, in Vitro, Database: Bacterial mutagenicity ISSSTY, ref CCRIS database,Toxnet databases (Romualdo Benigni)
[11] = Salmonella typhimurium, Strain TA 1535, in Vitro, Database: Genotoxicity OASIS, ref P&G
[12] = Salmonella typhimurium, Strain TA 1537, in Vitro, Database: Bacterial mutagenicity ISSSTY, ref CCRIS database,Toxnet databases (Romualdo Benigni)
[13] = Salmonella typhimurium, Strain TA 1537, in Vitro, Database: Genotoxicity OASIS, ref P&G
[14] = in Vitro, Chinese hamster, Chinese Hamster Lung (CHL), Duration 24÷48 h, Database Genotoxicity OASIS, ref Sofuni, T., Ed. (1998). Data Book of Chromosomal Aberration Test In Vitro, Revised Edition
[15] = in Vitro, Database Genotoxicity & Carcinogenicity ECVAM, ref EURL ECVAM genotoxicity and carcinogencity database, Madia F et al, 2020
[16] = in Vitro, No Strain Information, Database Genotoxicity OASIS, ref Mutation Research 584 (2005) 1-256, Kirkland et al.
[17] = in Vitro, Salmonella typhimurium, No Strain Information, Database Genotoxicity OASIS, ref Journal of Medicinal Chemistry 48 (1), pp. 312-32, 25, Kazius J, McGuire R., Bursi R
[18] = in Vitro, Salmonella typhimurium, Strain TA 97, Database Genotoxicity OASIS, ref P&G
[19] = in Vitro, Salmonella typhimurium, Strain TA 98, Database Genotoxicity OASIS, ref P&G
[20] = in Vitro, Salmonella typhimurium, Strain TA 100, Database Genotoxicity OASIS, ref P&G
[21] = in Vitro, Salmonella typhimurium, Strain TA 102, OECD Guideline 471, Database Genotoxicity OASIS, ref CCRIS database,Toxnet databases
[22] = in Vitro, Salmonella typhimurium, Strain TA 1535, Database Genotoxicity OASIS, ref P&G
[23] = in Vitro, Salmonella typhimurium, Strain TA 1537, Database Genotoxicity OASIS, ref P&G
[24] = in Vitro, Salmonella typhimurium, Strain TA 1538, Database Genotoxicity OASIS, ref P&G
[25] = in Vitro, Database Genotoxicity OASIS, ref Mutation Research 584 (2005) 1-256, Kirkland et al.
[26] = Salmonella typhimurium, Strain TA 97, in Vitro, Database: Bacterial mutagenicity ISSSTY, ref CCRIS database,Toxnet databases (Romualdo Benigni)

Compound	Chromosome aberration, Micronucleus Assay [1, 3]	Gene mutation, Bacterial Reverse Mutation Assay (e.g. Ames Test) [2, 4]	Gene mutation, Bacterial Reverse Mutation Assay (e.g. Ames Test) [2, 5]	Gene mutation, Bacterial Reverse Mutation Assay (e.g. Ames Test) [2, 6]	Gene mutation, Bacterial Reverse Mutation Assay (e.g. Ames Test) [2, 7]	Gene mutation, Bacterial Reverse Mutation Assay (e.g. Ames Test) [2, 8]	Gene mutation, Bacterial Reverse Mutation Assay (e.g. Ames Test) [2, 9]	Gene mutation, Bacterial Reverse Mutation Assay (e.g. Ames Test) [2, 10]	Gene mutation, Bacterial Reverse Mutation Assay (e.g. Ames Test) [2, 11]	Gene mutation, Bacterial Reverse Mutation Assay (e.g. Ames Test) [2, 12]	Gene mutation, Bacterial Reverse Mutation Assay (e.g. Ames Test) [2, 13]	Chromosome aberration, Micronucleus Assay [2, 15]	Gene mutation, Bacterial Reverse Mutation Assay (e.g. Ames Test) [2, 15]	Gene mutation, Mammalian Cell Gene Mutation (MLA HPRT) [2, 15]	Chromosome aberration, in Vitro Mammalian Chromosome Aberration Test [2, 16]	Gene mutation, Bacterial Reverse Mutation Assay (e.g. Ames Test) [2, 18]	Gene mutation, Bacterial Reverse Mutation Assay (e.g. Ames Test) [2, 19]	Gene mutation, Bacterial Reverse Mutation Assay (e.g. Ames Test) [2, 20]	Gene mutation, Bacterial Reverse Mutation Assay (e.g. Ames Test) [2, 21]	Gene mutation, Bacterial Reverse Mutation Assay (e.g. Ames Test) [2, 22]	also measured
CC(C)(c1ccc(O)cc1)c1ccc(O)cc1 [80-05-7]	Negative	Negative	Negative	Negative	Negative	Negative	Negative	Negative	Negative	Negative	Negative	Negative	Negative	Inadequate	Positive	Negative	Negative	Negative	Negative	Negative	Chromosome aberration, in Vivo Mammalian Chromosome Aberration Test [1, 3]: Positive; Gene mutation, Bacterial Reverse Mutation Assay (e.g. Ames Test) ([2]; Salmonella typhimurium, Strain TA 97A, in Vitro, Database: Bacterial mutagenicity ISSSTY, ref CCRIS database,Toxnet databases (Romualdo Benigni)): Negative; Chromosome aberration, in Vitro Mammalian Chromosome Aberration Test ([2]; in Vitro, Chinese hamster, Chinese Hamster Lung (CHL), Duration 6÷18 h, Database Genotoxicity OASIS, ref Sofuni, T., Ed. (1998). Data Book of Chromosomal Aberration Test In Vitro, Revised Edition): Negative; Chromosome aberration, in Vitro Mammalian Chromosome Aberration Test [2, 14]: Negative; Chromosome aberration, in Vitro Mammalian Chromosome Aberration Test [2, 15]: Positive; Gene mutation, Bacterial Reverse Mutation Assay (e.g. Ames Test) [2, 17]: Negative; Gene mutation, Bacterial Reverse Mutation Assay (e.g. Ames Test) [2, 23]: Negative; Gene mutation, Bacterial Reverse Mutation Assay (e.g. Ames Test) [2, 24]: Negative; Gene mutation, Mammalian Cell Gene Mutation Assay [2, 25]: Negative
OCc1ccccc1 [100-51-6]	Negative	Negative	Negative	Negative	Negative	Negative	Negative	Negative	Negative	Negative	Negative	Negative	Negative	Inadequate	Positive	Negative	Negative	Negative	Negative	Negative	DNA damage and repair, COMET or Alkaline Elution [1, 3]: Positive; Chromosome aberration, Micronucleus Assay ([1]; Database Genotoxicity OASIS, ref Hayashi M., et al., Food Chem. Toxicol., 26(6), 487-500, 1988): Negative; DNA damage and repair, Single Cell Gel Electrophoresis (comet) Assay ([1]; Database Genotoxicity OASIS): Negative; Gene mutation, Bacterial Reverse Mutation Assay (e.g. Ames Test) [2, 26]: Negative; Chromosome aberration, in Vitro Mammalian Chromosome Aberration Test ([2]; in Vitro, Chinese hamster, CHO Cells, Database Genotoxicity OASIS, ref ECHA, Registration dossier): Positive; Chromosome aberration, in Vitro Mammalian Chromosome Aberration Test [2, 14]: Negative; Chromosome aberration, in Vitro Mammalian Chromosome Aberration Test [2, 15]: Negative; Gene mutation, Bacterial Reverse Mutation Assay (e.g. Ames Test) [2, 17]: Negative; Gene mutation, Bacterial Reverse Mutation Assay (e.g. Ames Test) [2, 23]: Negative; Gene mutation, Bacterial Reverse Mutation Assay (e.g. Ames Test) [2, 24]: Negative; Gene mutation, Mammalian Cell Gene Mutation Assay [2, 25]: Positive
Oc1ccccc1 [108-95-2]	Positive	Negative	Negative	Negative	Negative	Negative	Negative	Negative	Negative	Negative	Negative	Positive	Negative	Positive	Positive	Negative	Negative	Negative	Negative	Negative	Chromosome aberration, in Vivo Mammalian Chromosome Aberration Test [1, 3]: Negative; DNA damage and repair, COMET or Alkaline Elution [1, 3]: Positive; Chromosome aberration, Micronucleus Assay ([1]; Database Genotoxicity OASIS, ref Ciranni, R., Barale, & Marrazzini, A. (1988), Mutat Res, 208, 61-67): Negative; DNA damage and repair, Single Cell Gel Electrophoresis (comet) Assay ([1]; Database Genotoxicity OASIS): Positive; Gene mutation, Bacterial Reverse Mutation Assay (e.g. Ames Test) [2, 26]: Negative; Gene mutation, Bacterial Reverse Mutation Assay (e.g. Ames Test) ([2]; Salmonella typhimurium, Strain TA 104, in Vitro, Database: Bacterial mutagenicity ISSSTY, ref CCRIS database,Toxnet databases (Romualdo Benigni)): Negative; Gene mutation, Bacterial Reverse Mutation Assay (e.g. Ames Test) ([2]; Salmonella typhimurium, Strain TA 7001, in Vitro, Database: Bacterial mutagenicity ISSSTY, ref CCRIS database,Toxnet databases (Romualdo Benigni)): Negative; Gene mutation, Bacterial Reverse Mutation Assay (e.g. Ames Test) ([2]; Salmonella typhimurium, Strain TA 7002, in Vitro, Database: Bacterial mutagenicity ISSSTY, ref CCRIS database,Toxnet databases (Romualdo Benigni)): Negative; Gene mutation, Bacterial Reverse Mutation Assay (e.g. Ames Test) ([2]; Salmonella typhimurium, Strain TA 7003, in Vitro, Database: Bacterial mutagenicity ISSSTY, ref CCRIS database,Toxnet databases (Romualdo Benigni)): Negative; Gene mutation, Bacterial Reverse Mutation Assay (e.g. Ames Test) ([2]; Salmonella typhimurium, Strain TA 7004, in Vitro, Database: Bacterial mutagenicity ISSSTY, ref CCRIS database,Toxnet databases (Romualdo Benigni)): Negative; Gene mutation, Bacterial Reverse Mutation Assay (e.g. Ames Test) ([2]; Salmonella typhimurium, Strain TA 7005, in Vitro, Database: Bacterial mutagenicity ISSSTY, ref CCRIS database,Toxnet databases (Romualdo Benigni)): Negative; Gene mutation, Bacterial Reverse Mutation Assay (e.g. Ames Test) ([2]; Salmonella typhimurium, Strain TA 7006, in Vitro, Database: Bacterial mutagenicity ISSSTY, ref CCRIS database,Toxnet databases (Romualdo Benigni)): Negative; Genetic Toxicity, Gene mutation (Bacterial Reverse Mutation Assay, e.g. Ames Test) ([2]; Salmonella typhimurium, strain TA 100, in Vitro, scale Gene mutation I, ref CCRIS database, Toxnet databases, Database: Bacterial mutagenicity ISSSTY (Romualdo Benigni, 2011)): Negative; Chromatids exchanges/ recombination, Sister Chromatid Exchange (SCE) [2, 15]: Positive; DNA damage and repair, DNA Adducts [2, 15]: Positive; Gene mutation, in Vitro Mammalian Cell Micronucleus Test [2, 25]: Positive; Gene mutation, Bacterial Reverse Mutation Assay (e.g. Ames Test) [2, 23]: Negative; Gene mutation, Bacterial Reverse Mutation Assay (e.g. Ames Test) [2, 24]: Negative; Gene mutation, Mammalian Cell Gene Mutation Assay [2, 25]: Positive; Genetic Toxicity, unscheduled DNA synthesis (UDS in Vitro) ([2]; in Vitro, scale Mutagenicity I (ECVAM), ref EURL ECVAM genotoxicity and carcinogencity database, Madia F et al, 2020): Positive
